This test deals with T1, Glucocorticoid receptor (Rattus norvegicus) (UniProt P06536).
T1 sequence (whole entry): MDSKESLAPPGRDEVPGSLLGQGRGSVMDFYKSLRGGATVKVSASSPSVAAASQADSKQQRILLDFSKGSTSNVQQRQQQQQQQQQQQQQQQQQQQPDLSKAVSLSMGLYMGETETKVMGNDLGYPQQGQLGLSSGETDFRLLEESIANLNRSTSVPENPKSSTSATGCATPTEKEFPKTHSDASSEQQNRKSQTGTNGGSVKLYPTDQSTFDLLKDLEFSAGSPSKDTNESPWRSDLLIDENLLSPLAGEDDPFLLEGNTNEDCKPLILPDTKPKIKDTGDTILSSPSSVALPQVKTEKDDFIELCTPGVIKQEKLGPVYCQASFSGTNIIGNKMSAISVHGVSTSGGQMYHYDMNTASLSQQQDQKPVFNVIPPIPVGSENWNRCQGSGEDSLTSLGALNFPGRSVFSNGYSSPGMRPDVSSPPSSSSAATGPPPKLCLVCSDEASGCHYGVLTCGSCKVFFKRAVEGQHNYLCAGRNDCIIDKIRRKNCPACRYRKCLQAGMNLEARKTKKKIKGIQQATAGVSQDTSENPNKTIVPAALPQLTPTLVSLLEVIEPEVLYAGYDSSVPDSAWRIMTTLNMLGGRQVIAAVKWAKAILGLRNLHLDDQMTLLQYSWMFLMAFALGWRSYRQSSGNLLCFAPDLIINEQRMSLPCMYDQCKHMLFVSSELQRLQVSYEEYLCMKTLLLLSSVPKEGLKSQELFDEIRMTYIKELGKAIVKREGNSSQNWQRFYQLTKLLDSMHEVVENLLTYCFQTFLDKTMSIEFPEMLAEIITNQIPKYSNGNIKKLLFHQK
Briefly: Relative binding affinity to glucocorticoid receptor on cytosol fromt hymus at 4 hr.

As for `CC#C[C@]1(O)CCC2C3CCC4=CC(=O)CCC4=C3C(c3cccs3)CC21C` (stereo partly specified), the RBA came out at 270.
